Data from patent publication US6545002B1 (University of Virginia Patent Foundation, priority 1999, dated 2003).

Columns and labels:
rat A2A receptors (rA2A) = biological target: T1, rat A2A receptors (rA2A) (Rattus norvegicus, UniProt P30543); assay: Displacement of [3H]CGS 21680 binding in rat striatal membranes; details: Table 2; read-out: rA2A Ki or IC50
T1 construct: to A2A receptors from rat striatal membranes was performed as described; from tissue; host or cells: rat striatal membranes

rat A1 receptors (rA1) = biological target: T2, rat A1 receptors (rA1) (Rattus norvegicus, UniProt P25099); assay: Displacement of [3H]R-PIA binding in rat brain (cerebral cortical) membranes; details: Table 2; read-out: rA1 Ki or IC50
T2 construct: to A1 receptors from rat cerebral cortical membranes; from tissue; host or cells: rat cerebral cortical (brain) membranes
T2 sequence (P25099 1-326): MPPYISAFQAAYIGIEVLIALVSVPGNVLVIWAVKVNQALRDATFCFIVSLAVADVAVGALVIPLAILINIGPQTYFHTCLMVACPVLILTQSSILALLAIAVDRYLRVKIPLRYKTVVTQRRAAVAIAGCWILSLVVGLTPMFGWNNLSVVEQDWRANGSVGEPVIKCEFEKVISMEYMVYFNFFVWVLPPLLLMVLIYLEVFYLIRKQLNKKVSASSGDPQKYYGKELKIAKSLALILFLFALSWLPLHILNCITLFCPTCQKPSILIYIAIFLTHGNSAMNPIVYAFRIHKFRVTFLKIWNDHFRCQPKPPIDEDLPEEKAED

[1] = test system: myocardial infarction in dogs; assay: Ninety minute LAD coronary artery occlusion/reperfusion, infarct size by TTC staining; type: in vivo, dog; details: 200 nM intracoronary at 1 ml/min during occlusion and reperfusion, versus vehicle

T1 sequence (P30543 whole entry): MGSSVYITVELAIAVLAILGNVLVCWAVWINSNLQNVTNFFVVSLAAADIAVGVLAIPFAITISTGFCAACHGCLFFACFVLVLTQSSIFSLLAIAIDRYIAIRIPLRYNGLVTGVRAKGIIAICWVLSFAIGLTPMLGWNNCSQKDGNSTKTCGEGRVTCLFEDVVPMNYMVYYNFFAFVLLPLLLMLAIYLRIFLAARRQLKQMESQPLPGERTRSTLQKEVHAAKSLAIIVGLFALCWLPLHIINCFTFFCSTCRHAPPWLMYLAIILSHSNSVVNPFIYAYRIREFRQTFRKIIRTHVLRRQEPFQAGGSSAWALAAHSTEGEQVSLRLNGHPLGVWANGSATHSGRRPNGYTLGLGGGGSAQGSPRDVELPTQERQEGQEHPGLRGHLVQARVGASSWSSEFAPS

Ki (rat A2A receptors (rA2A)): 612 ± 287 nM
Ki (rat A1 receptors (rA1)): 16.8 ± 3.6 nM
SMILES: CCCn1c(=O)c2[nH]c(-c3ccc(OCC(=O)Nc4ccc(C#N)cc4)cc3)nc2n(CCC)c1=O [Compound 27, 8-[4-[((4-Cyano)phenylcarbamoylmethyl)oxy]phenyl]-1,3-di-(n-propyl)xanthine]
infarct size / infarct area (IA) as %LV or %RA [1]: significantly reduced the infarct area
